Results reported in patent publication US11674952B2, “Embryonic cell-based therapeutic candidate screening systems, models for Huntington's Disease and uses thereof” (The Rockefeller University, priority 2016, dated 2023).
Entries after “also recorded” stand apart in the source; their conditions may differ.

Tested on: RUES2-Q150 cells
Test: Germ layer micropattern screen: BMP4-differentiated hESC colonies, reversion of the HD-dependent micropattern signature
Assay type: cell-based, human
Conditions: kinetin 1 μM for 2-24 hours prior to BMP4 addition
Description: Micropattern cultures were established according to methods described in Warmflash et al., Nature Methods. 2014 August: 11(8):847-854. This procedure is briefly described in Materials and Methods.
Cells confined to circular micropatterns and differentiated with BMP4 produce an ordered array of germ layers along the radial axis of the colony. This order results from self-organized signaling which confines response to the BMP4 to the colony border while inducing a broader gradient of Activin/Nodal signaling to pattern mesendodermal fates. Control of fates is established from the border of the colony so that as colony size is reduced the central fates are lost. Thus, given minimal geometric and signaling cues, hESCs will self-organize to generate embryonic patterns such as those of the human gastrula.
The Applicants next applied micropattern technology to the isogenic hESC lines for Huntington's Disease. […]
The spatial expression of germ markers Sox2, Bra, and Cdx2 was compared between RUES2 and RUES2-Q150 cells (FIG. 6). […] Tri dimensional geometry was evaluated by first generating images of cells at different focal planes known as “Z-stacks”. […]

`c1coc(CNc2ncnc3[nH]cnc23)c1` [kinetin] was tested, and the “rescue of HD-dependent micropattern signature (SOX2+ area; Sox2 and Bra/Cdx2 territories)” value was “reduced or reverted HD-dependent micropattern signature; also recorded: restore the HD-dependent micropattern signature; also recorded: at least partially rescued; also recorded: partial but significant rescue of phenotype” and the “rescue of cell number phenotype (total number of cells per micropattern, cell density)” value was “restored the cell density; also recorded: restored the cell number phenotype; also recorded: rescues the cell number phenotype”.
